From ChEMBL document CHEMBL1128852, “Butyrophenone analogues: Synthesis of 2-methyl-3-ethyl-5-aminoethyl-4,5,6,7-tetrahydroindol-4-ones, and their affinities for d1, d2 and 5-ht2a receptors” (Bioorg Med Chem Lett, 1995) come the findings set out here.

Test [1] deals with 5-hydroxytryptamine receptor 2A (Rattus norvegicus, UniProt P14842). Nature of the test: Inhibition constant for in vitro inhibition of [3H]ketanserin binding to rat frontal cortex membranes 5-hydroxytryptamine 2A receptor. Type of test: cell membranes, Membrane.
5-hydroxytryptamine receptor 2A, sequence (P14842 whole entry): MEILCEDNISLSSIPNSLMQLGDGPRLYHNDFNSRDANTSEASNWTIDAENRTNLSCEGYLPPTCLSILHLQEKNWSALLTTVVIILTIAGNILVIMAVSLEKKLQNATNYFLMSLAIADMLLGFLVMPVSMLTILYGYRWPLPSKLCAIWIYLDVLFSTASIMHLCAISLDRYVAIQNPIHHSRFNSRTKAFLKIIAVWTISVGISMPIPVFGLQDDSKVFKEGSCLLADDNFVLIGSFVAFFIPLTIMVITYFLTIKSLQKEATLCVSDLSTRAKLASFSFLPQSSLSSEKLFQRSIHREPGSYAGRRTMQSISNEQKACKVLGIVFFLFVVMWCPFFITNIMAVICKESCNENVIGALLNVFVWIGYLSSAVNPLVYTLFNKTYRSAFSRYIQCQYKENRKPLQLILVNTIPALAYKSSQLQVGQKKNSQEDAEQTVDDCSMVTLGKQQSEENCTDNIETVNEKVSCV
The target in test [2] is D(2) dopamine receptor (Rattus norvegicus, UniProt P61169). The test is described as follows: Inhibition constant for in vitro inhibition of [3H]spiperone binding to striatal membranes Dopamine receptor D2.
D(2) dopamine receptor, sequence (P61169 whole entry): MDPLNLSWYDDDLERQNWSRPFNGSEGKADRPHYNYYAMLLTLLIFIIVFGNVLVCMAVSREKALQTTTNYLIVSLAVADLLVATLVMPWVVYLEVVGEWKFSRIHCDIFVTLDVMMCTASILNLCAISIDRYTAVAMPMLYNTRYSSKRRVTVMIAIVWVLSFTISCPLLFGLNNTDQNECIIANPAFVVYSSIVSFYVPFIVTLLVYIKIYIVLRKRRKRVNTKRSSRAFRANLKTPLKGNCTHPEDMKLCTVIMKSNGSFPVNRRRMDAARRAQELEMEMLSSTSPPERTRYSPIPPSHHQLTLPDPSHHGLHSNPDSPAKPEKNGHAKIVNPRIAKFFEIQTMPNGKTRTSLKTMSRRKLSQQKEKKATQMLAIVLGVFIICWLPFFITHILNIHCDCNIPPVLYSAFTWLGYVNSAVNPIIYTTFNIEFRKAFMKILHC
In test [3] the target is D(1A) dopamine receptor (Rattus norvegicus, UniProt P18901). Nature of the test: Inhibition constant for in vitro inhibition of [3H]-SCH- 23390 binding to striatal membranes Dopamine receptor D1. Also noted: species or system Striatum, Membrane.
D(1A) dopamine receptor, sequence (P18901 whole entry): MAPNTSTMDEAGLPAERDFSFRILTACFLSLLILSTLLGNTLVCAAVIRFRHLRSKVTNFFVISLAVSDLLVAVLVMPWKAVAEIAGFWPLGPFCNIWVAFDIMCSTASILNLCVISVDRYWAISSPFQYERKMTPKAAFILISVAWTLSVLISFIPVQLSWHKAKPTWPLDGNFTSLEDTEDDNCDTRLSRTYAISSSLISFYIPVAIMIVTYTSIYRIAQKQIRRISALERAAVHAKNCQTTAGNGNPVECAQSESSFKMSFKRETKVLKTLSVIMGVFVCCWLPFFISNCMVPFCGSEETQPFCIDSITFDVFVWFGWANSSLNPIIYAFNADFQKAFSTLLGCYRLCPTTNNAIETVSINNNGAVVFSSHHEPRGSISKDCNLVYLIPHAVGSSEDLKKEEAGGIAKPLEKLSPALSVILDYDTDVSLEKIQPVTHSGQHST
The species named for test [4] is Rattus norvegicus. The test is described as follows: (§1) Competitive antagonism against serotonin-induced contractions in rat aorta ring stripped of endothelium. Type of test: functional. To be noted: read-out: pA2 (converted).
The species entered for test [5] is Rattus norvegicus. Described as §1. To be noted: read-out: pA2 (converted).

Regarding `CCc1c(C)[nH]c2c1C(=O)C(CCN1CCN(c3ccccc3OC)CC1)CC2` (centres undefined), the figures for the Ki in test [1], in test [2] and in test [3] were 91.2 nM, 28.2 nM and 1170 nM, respectively. For the same molecule, the Kb in test [4] was 31.6 nM.
For the molecule `CCc1c(C)[nH]c2c1C(=O)C(CCN1CCOCC1)CC2` (centres undefined), the figures for the Ki in test [1], in test [2] and in test [3] were 912 nM, 589 nM and 2140 nM, respectively. In addition, the Kb in test [5] is 105 nM.
On to `CCc1c(C)[nH]c2c1C(=O)C(CN1CCOCC1)CC2` (centres undefined) [MOLINDONE], for which the Ki in test [3] is 1580 nM.

Broadly, the Ki is the dissociation constant of the complex between target and ligand, obtained from inhibition or displacement. A lower Ki goes with a stronger hold on the target.
